Results taken from paper PMC7468108 (Communications Biology, 2020).

What was measured:
[1] = tested on: SH-SY5Y cells exposed to pre-formed Aβ42 fibrils; assay: XTT assay, reduction of Aβ42-induced cytotoxicity in SH-SY5Y; format: cell-based, human; parameters: %Viability: dose or concentration left out as unconfirmed
Method: The peptide assemblies were then incubated for further 24 h with SH-SY5Y or HEK-293 cells and cell viability was monitored by XTT assay (Fig. 9). […] The mixtures were then independently applied to the respective cells for 24 h, and cell viability was further measured by XTT assay (Fig. 10a).
The SH-SY5Y and HEK-293 cell lines (2 × 10^5 cells/mL) were cultured in 96-well tissue microplates (100 µL/well) and allowed to adhere overnight at 37 °C. The conjugate molecules were dissolved in DMEM:nutrient mixture F12 (Ham’s) (1:1) (Biological Industries, Israel) at different concentrations. The negative control was prepared as medium without hybrid molecules and treated in the same manner. 100 µL of medium with or without hybrid molecules were added to each well in triplicate. Following incubation for 24 h at 37 °C, cell viability was evaluated using the 2,3-bis(2-methoxy-4-nitro-5-sulfophenyl)-2H-tetrazolium-5-carboxanilide (XTT) cell proliferation assay kit (Biological Industries, Israel) according to the manufacturer’s instructions. Briefly, 100 µL of activation reagent was added to 5 mL of XTT reagent, followed by the addition of 50 µL of activated-XTT solution to each well. After 2 h incubation at 37 °C, color intensity was measured using an ELISA microplate reader at 450 nm and 630 nm. Results are presented as mean and mean standard error. Each experiment was repeated minimum three times.
For the quantitative data derived from ThT and XTT assays, statistical significance, expressed as p-value, was determined using Student’s t-test calculation applied at the end of the experiments, setting tails to 2 (tailed distribution) and type to 2 (samples equal variance), according to reported methods. From the XTT viability assays, EC50 and Emax values were determined from the dose-response curves of each tested molecule using non-linear least-square data fitting, according to literature.

[2] = target: T1, pre-formed fibrils of hIAPP (Homo sapiens, UniProt P10997); assay: TEM of pre-formed hIAPP fibrils with the tested molecules; conditions: 5-fold molar excess of compound
T1 construct: hIAPP is a 37-amino acid neuroendocrine peptide hormone; purchased Peptide 2.0 (USA)
T1 sequence (P10997 34-70 limits assumed): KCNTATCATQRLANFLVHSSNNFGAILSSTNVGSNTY
Method: For efficient treatment of proteinopathies it may be advantageous to disassemble amyloid aggregates/fibrils which are usually already present at the time of diagnosis[75]–[77]. Therefore, the ability of the hybrid molecules to disrupt pre-formed fibrils of Aβ42 and hIAPP was examined. […] According to the ThT kinetic results, this time was sufficient to complete fibril formation (Fig. 2a, d). Then, various doses of the hybrid molecules were added to the pre-formed fibrils and the mixtures were incubated for additional 10 h. The process of disaggregation was monitored by ThT-binding assay, CD spectroscopy, TEM and Congo red staining (Fig. 5).
Samples (10 µL) were placed for 2 min on 400-mesh copper grids covered with carbon-stabilized Formvar film (Electron Microscopy Sciences (EMS), Hatfield, PA). Excess fluid was removed, and grids were negatively stained with 2% uranyl acetate solution (10 µL) for 2 min. After excess fluid removal, the samples were visualized using a JEM-1400 TEM (JEOL), operated at 80 kV.

## NC(Cc1c[nH]c2ccccc12)C(=O)NC(Cc1c[nH]c2ccccc12)C(=O)O (stereo not shown) [WW]
[1]; Aβ42 […] µM : compound 1:1
  %Viability: 54.466%
[1]; Aβ42 […] µM : compound 1:5
  %Viability: 57.303%
[1]; Aβ42 […] µM : compound 1:10
  %Viability: 57.999%
[1]; Aβ42 […] µM : compound 1:20
  %Viability: 59.030%
[1]; Aβ42 […] µM : compound 5:1
  %Viability: 52.403%
[1]; Aβ42 […] µM : compound 10:1
  %Viability: 48.896%
[1]; Aβ42 […] µM : compound 20:1
  %Viability: 51.423%
[1]; Aβ42 […] µM : compound 50:1
  %Viability: 50.031%
[1]; Homo sapiens, read-out: Aβ42 EC50
  EC50: 13 µM
[2]
  pre-formed hIAPP fibrils by TEM, in words: unchanged
